Experimental data as given in patent US20240066003A1, “NEURODEVELOPMENTAL DISORDER THERAPY” (Anavex Life Sciences Corp., priority 2016, published 2024).

Tests used:
[1] = Body weight of Mecp2 HET mice under chronic dosing; format: in vivo; details: 30 mg/kg p.o. daily, 6.5 weeks after dosing began; Treatment×Age effect p<0.001
Protocol: Studies employed wild type (WT) mice and heterozygous MECP2knockout mice (HET) All mice were provided by Jackson Laboratory, Bar Harbor, Maine. HET mice were Bird mice (Jackson Laboratories, Bar Harbor, ME, B6.129P2(C)-Mecp2^tm1.1Bird/Stock Number: 003890) were obtained by crossing het females with wild type (WT) males (C57B/6J). […] Mecp2 females testing at ˜8 and ˜12 weeks of age WT—vehicle (0.25% MC/dH2O) HET—vehicle (0.25% MC/dH2O) HET—A2-733 (10 mg/kg) HET—A2-733 (30 mg/kg) Chronic dosing (p.o.) daily, starting at ˜5.5 weeks of age and continuing through the 12-week behavioral testing time point 60 min pre-treatment during behavioral testing. […] FIG. 1 There was a significant Treatment×Age effect (p<0.001), where mice treated with A2-733 (30 mg/kg) weighed less than vehicle-treated mutant mice 6.5 weeks after dosing began.

[2] = test system: heterozygous MECP2knockout mice (HET); assay: NeuroCube gait analysis; format: in vivo
Protocol: Studies employed wild type (WT) mice and heterozygous MECP2knockout mice (HET) All mice were provided by Jackson Laboratory, Bar Harbor, Maine. HET mice were Bird mice (Jackson Laboratories, Bar Harbor, ME, B6.129P2(C)-Mecp2^tm1.1Bird/Stock Number: 003890) were obtained by crossing het females with wild type (WT) males (C57B/6J). […] Mecp2 females testing at ˜8 and ˜12 weeks of age WT—vehicle (0.25% MC/dH2O) HET—vehicle (0.25% MC/dH2O) HET—A2-733 (10 mg/kg) HET—A2-733 (30 mg/kg) Chronic dosing (p.o.) daily, starting at ˜5.5 weeks of age and continuing through the 12-week behavioral testing time point 60 min pre-treatment during behavioral testing. Neurological testing via a platform that employs computer vision to detect changes in gait geometry and gait dynamics in rodent models of neurological disorders, pain, and neuropathies. Complex bio-informatics algorithms similar to those used in SmartCube® are employed to detect a disease phenotype and screen compounds. (NeuroCube, PsychoGenics, Tarrytown NY) A platform that employs computer vision to detect changes in gait geometry and gait dynamics in rodent models of neurological disorders, pain, and neuropathies. Mice are allowed to walk in the chamber for 5 min. When the paw touches the screen, LED light reflects creating bright spots. Images are captured and processed using proprietary computer vision and bio-informatics data mining algorithms.

Rett syndrome [3] = assay: Example 1 breathing variability in Rett syndrome patient; format: in vivo, human; details: person, oral 4 mg daily for 10 days
Protocol: A person presenting with Rett syndrome is administered oral doses of A2-73 at 4 mg daily for 10 days. On presentation, their breathing is abnormal. Their mean breaths per minute is calculated to assess breathing variability.

Rett syndrome [4] = assay: Example 3 seizure reduction in Rett syndrome patient; format: in vivo, human; details: oral 2 mg daily, after 5 days, 6 to 10 seizures per day before therapy
Protocol: A person presents with Rett syndrome. They experience 6 to 10 seizures per day prior to commencing therapy. They begin treatment with oral doses of A2-73 at 2 mg daily. After 5 days of treatment, the number of daily seizures is reduced to 3 or fewer.

Rett syndrome [5] = assay: Example 4 eating and choking in Rett syndrome patient; format: in vivo, human; details: person, oral 40 mg every other day, after 60 days
Protocol: A person presents with Rett syndrome. […] They begin treatment with oral doses of A2-73 at 40 mg every other day.

Angelman syndrome = assay: Example 5 sleep and seizures in Angelman syndrome patient; format: in vivo, human; details: person, oral 30 mg/day, after 15 days
Protocol: A person presents with Angelman syndrome. They experience disturbed sleep and frequent seizures prior to commencing therapy. They begin treatment with oral doses of A2-73 at 30 mg/day.

Williams syndrome = assay: Example 6 weight gain in Williams syndrome patient; format: in vivo, human; details: person, i.v. 5 mg every other day, after 60 days
Protocol: A person presents with Williams syndrome. […] They begin treatment with i.v. doses of A2-73 at 5 mg every other day.

Smith—Magenis syndrome = assay: Example 7 sleep in Smith-Magenis syndrome patient; format: in vivo, human; details: person, oral 10 mg/day, after 15 days
Protocol: A person presents with Smith—Magenis syndrome. They experience disturbed sleep. They begin treatment with oral doses of A2-73 at 10 mg/day.

multiple sclerosis = assay: Example 8 gadolinium-enhanced MRI lesions in multiple sclerosis patient; format: in vivo, human; details: person, oral 40 mg every fifth day, weeks 12, 16, 20 and 24 vs 12 week pretreatment MRI
Protocol: A person presents with multiple sclerosis. They begin treatment with oral doses of A2-73 at 40 mg every fifth day.

[6] = test system: relapsing-remitting multiple sclerosis; assay: Example 9 gadolinium-enhancing MRI lesions in relapsing-remitting multiple sclerosis patient; format: in vivo, human; details: person, oral 30 mg every other day for 3 months, up to month 6
Protocol: A person presents with relapsing-remitting multiple sclerosis. They begin treatment with oral doses of A2-73 at 30 mg every other day for 3 months.

sigma-1 receptors = sigma-1 receptors (Homo sapiens, UniProt Q99720); details: believed to bind; cited from earlier work
[7] = test system: amyloid β25-35 peptide (Aβ25-35) injected mice; details: cited from earlier work

sigma-1 receptors, sequence (Q99720 whole entry): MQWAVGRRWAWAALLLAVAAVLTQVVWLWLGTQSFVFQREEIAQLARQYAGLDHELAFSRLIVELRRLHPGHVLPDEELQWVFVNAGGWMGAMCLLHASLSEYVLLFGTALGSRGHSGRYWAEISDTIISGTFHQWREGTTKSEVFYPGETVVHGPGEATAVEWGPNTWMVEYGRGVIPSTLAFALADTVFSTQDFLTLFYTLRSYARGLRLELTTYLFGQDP

## CN(C)CC1CCOC1(c1ccccc1)c1ccccc1.Cl (stereo not drawn) [A2-73, tetrahydro-N,N-dimethyl-2,2-diphenyl-3-furanmethanamine hydrochloride]
[1]
  body weight vs vehicle-treated mutant mice: weighed less
[2]; 8 week, 10 mg/kg, p > 0.09
  NeuroCube GAIT, Het vehicle v. Het AV2-73: 63, p > 0.09
[2]; 8 week, 10 mg/kg, p > 0.20
  NeuroCube Body Motion, Het vehicle v. Het AV2-73: 60, p > 0.20
[2]; 8 week, 10 mg/kg, p > 0.40
  NeuroCube Correlation, Het vehicle v. Het AV2-73: 56, p > 0.40
[2]; 8 week, 10 mg/kg, p > 0.57
  NeuroCube Paw Positioning, Het vehicle v. Het AV2-73: 53, p > 0.57
[2]; 8 week, 10 mg/kg, p > 0.69
  NeuroCube Overall, Het vehicle v. Het AV2-73: 53, p > 0.69
[2]; 8 week, 10 mg/kg, p > 0.78
  NeuroCube Paw Features, Het vehicle v. Het AV2-73: 52, p > 0.78
[2]; 8 week, 30 mg/kg, p < 0.003
  NeuroCube Body Motion, Het vehicle v. Het AV2-73: 81, p < 0.003
[2]; 8 week, 30 mg/kg, p < 0.005
  NeuroCube Correlation, Het vehicle v. Het AV2-73: 76, p < 0.005
[2]; 8 week, 30 mg/kg, p < 0.05
  NeuroCube GAIT, Het vehicle v. Het AV2-73: 69, p < 0.05
[2]; 8 week, 30 mg/kg, p > 0.24
  NeuroCube Overall, Het vehicle v. Het AV2-73: 62, p > 0.24
[2]; 8 week, 30 mg/kg, p > 0.36
  NeuroCube Paw Positioning, Het vehicle v. Het AV2-73: 57, p > 0.36
[2]; 8 week, 30 mg/kg, p > 0.56
  NeuroCube Paw Features, Het vehicle v. Het AV2-73: 55, p > 0.56
[2]; 8 weeks of age
  NeuroCube separation versus Het vehicle: no separation
[2]; 8 weeks of age, NeuroCube
  recovery of the overall signature: 9-17%
[2]; 12 week, 10 mg/kg, p > 0.29
  NeuroCube GAIT, Het vehicle v. Het AV2-73: 57, p > 0.29
[2]; 12 week, 10 mg/kg, p > 0.35
  NeuroCube Paw Features, Het vehicle v. Het AV2-73: 56, p > 0.35
[2]; 12 week, 10 mg/kg, p > 0.57
  NeuroCube Paw Positioning, Het vehicle v. Het AV2-73: 53, p > 0.57
[2]; 12 week, 10 mg/kg, p > 0.70
  NeuroCube Correlation, Het vehicle v. Het AV2-73: 53, p > 0.70
  NeuroCube Overall, Het vehicle v. Het AV2-73: 53, p > 0.70
[2]; 12 week, 10 mg/kg, p > 0.71
  NeuroCube Body Motion, Het vehicle v. Het AV2-73: 52, p > 0.71
[2]; 12 week, 30 mg/kg, p < 0.03
  NeuroCube Correlation, Het vehicle v. Het AV2-73: 69, p < 0.03
[2]; 12 week, 30 mg/kg, p < 0.04
  NeuroCube Body Motion, Het vehicle v. Het AV2-73: 68, p < 0.04
[2]; 12 week, 30 mg/kg, p > 0.21
  NeuroCube Overall, Het vehicle v. Het AV2-73: 61, p > 0.21
[2]; 12 week, 30 mg/kg, p > 0.37
  NeuroCube GAIT, Het vehicle v. Het AV2-73: 57, p > 0.37
[2]; 12 week, 30 mg/kg, p > 0.62
  NeuroCube Paw Positioning, Het vehicle v. Het AV2-73: 53, p > 0.62
[2]; 12 week, 30 mg/kg, p > 0.65
  NeuroCube Paw Features, Het vehicle v. Het AV2-73: 53, p > 0.65
Rett syndrome [3]
  breathing variability (breaths/minute): significantly reduced
Rett syndrome [4]
  number of daily seizures: ≤ 3
Rett syndrome [5]
  instances of choking: reduced
  weight gain: 10%
Angelman syndrome
  reduction of instances of seizure: 50%
  sleep: markedly less disturbed
Williams syndrome
  weight gain: 10%
Smith—Magenis syndrome
  sleep: markedly less disturbed
Multiple sclerosis
  total number of gadolinium-enhanced lesions on MRI: substantially reduced
[6]
  number of total gadolinium-enhancing lesions on monthly brain MRI: significantly lower number
sigma-1 receptors
  affinity for sigma-1 receptors: low micromolar range
[7]; Lahmy et al. 2013
  Aβ25-35-induced P-Akt decrease and P-GSK-3β increase: blocked
[7]; in the dose-range tested
  hyperphosphorylation of Tau on physiological (AT-8) and pathological (AT-100) epitopes: attenuated
[7]; mice one week after the i.v. injection of oligomeric Aβ25-35 (Villard et al. 2011)
  oxidative stress, caspases induction, cellular loss and learning and memory deficits: attenuating
[7]; mouse, in vivo
  Aβ25-35-induced endogenous Aβ1-42 seeding: decreasing
